Paper PMC8480782, “Efficient Dimerization Disruption of Leishmania infantum Trypanothione Reductase by Triazole-phenyl-thiazoles” (Journal of Medicinal Chemistry, 2021)
Where “and” joins values, the source holds several entries; their conditions need not be identical. Equal values may be shown once. Read-outs that look alike come from different tables or passages of the source.

What was measured:
HepG2 cells = assay: Cellular toxicity, crystal violet assay; assay type: cell-based; details: Homo sapiens, read-out: EC50 HepG2
Description: Liver hepatocellular carcinoma HepG2 cells were grown in Dulbecco’s modified Eagle’s medium (DMEM) (Sigma-Aldrich, St. Louis, MO) with 10% heat-inactivated FCS, antibiotics, and 10 mM HEPES.
Drug treatment of liver hepatocellular carcinoma HepG2 cells was performed at a concentration of 10^5 cells/mL at 37 °C and 5% CO2 for 24 h. EC50 was evaluated by the crystal violet assay. Briefly, cells were washed with phosphate-buffered saline (PBS) and stained with 200 μL of crystal violet solution (0.2% crystal violet, 2% ethanol) for 10 min at room temperature. Next, the plates were washed twice with tap water and allowed to dry. The stained cells were solubilized with 400 μL of 1% sodium dodecyl sulfate (SDS), and the color intensity was quantified at 570 nm using an EnSpire Multimode Plate Reader (PerkinElmer, Waltham, MA). All of the assays were conducted in triplicate in at least three independent experiments. Data were analyzed using a nonlinear regression model with GraFit 6 software (Erithacus, Horley, Surrey, U.K.).

LiTryR = target: T1, LiTryR (Leishmania infantum, UniProt A4HSF7); assay: biochemical; assay type: biochemical; details: for IC50: LiTryR, 1 μM TS2, maximum assayed 75 μM, read-out: IC50^act, TryR oxidoreductase activity
T1 construct: HIS (N); made in house; host or cells: E. coli BL21 (DE3) Rossetta
T1 sequence (A4HSF7 1-491): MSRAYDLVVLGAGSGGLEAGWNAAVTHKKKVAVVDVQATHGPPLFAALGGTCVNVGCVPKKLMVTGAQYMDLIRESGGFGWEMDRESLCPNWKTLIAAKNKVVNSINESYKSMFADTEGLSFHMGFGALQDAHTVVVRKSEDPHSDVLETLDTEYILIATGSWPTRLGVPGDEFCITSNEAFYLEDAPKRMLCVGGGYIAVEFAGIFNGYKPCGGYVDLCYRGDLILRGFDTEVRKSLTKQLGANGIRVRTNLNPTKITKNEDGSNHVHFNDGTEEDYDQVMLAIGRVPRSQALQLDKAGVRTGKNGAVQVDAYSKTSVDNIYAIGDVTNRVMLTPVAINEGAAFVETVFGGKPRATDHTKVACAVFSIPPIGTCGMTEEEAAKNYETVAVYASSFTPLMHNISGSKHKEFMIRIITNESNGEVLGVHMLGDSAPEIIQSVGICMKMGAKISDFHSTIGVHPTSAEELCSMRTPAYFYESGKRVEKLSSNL
Description: A concentration of 1 μM TS2 was used for this initial screening. This low substrate concentration is sufficient for comparison of compound inhibitory activity in the oxidoreductase assay.
Recombinant L. infantum TryR (LiTryR) HIS-tagged and HIS-FLAG-tagged versions were used for all LiTryR oxidoreductase activity and dimer quantitation assays. These LiTryR versions were purified from Escherichia coli as previously described.[25] Briefly, pRSETA-HIS-LiTryR construct alone or in combination with the pET24a-FLAG-LiTryR construct was transformed into BL21 (DE3) Rossetta E. coli strain. An overnight E. coli culture grown at 37 °C in Luria–Bertani (LB) medium with the appropriate antibiotics and vigorous shaking was diluted (1:100) in the same medium and allowed to grow in the same conditions until the OD600 was 0.5. Then, LiTryR expression was induced by addition of 1 mM isopropyl-β-D-1-thiogalactopyranoside (IPTG) for 16 h at 26 °C. The cells were centrifuged for 5 min at 9000g and 4 °C and the wet pellet resuspended in lysis buffer (50 mM Tris, pH 7, 300 mM NaCl, 25 mM imidazole, protease inhibitor cocktail, and 1 mg/mL lysozyme). […] The supernatant was sonicated again as previously described for 10 min and loaded on a HisTrap column (GE Healthcare, Chicago, IL) for 16 h at 4 °C using a P-1 peristaltic pump (GE Healthcare, Chicago, IL). Once loaded, the HisTrap column was connected to an ÄKTA purifier UPC 10 (GE Healthcare, Chicago, IL) and washed using a 5–10% gradient between buffer A (50 mM Tris, pH 7 and 300 mM NaCl) and B (50 mM Tris, pH 7, 300 mM NaCl, and 500 mM imidazole). LiTryR was eluted using a 40% gradient between buffers A and B. Fractions containing recombinant LiTryR were pooled and loaded into a HiPrep 26/10 Desalting column (GE Healthcare, Chicago, IL) previously equilibrated with buffer A. Finally, LiTryR was concentrated to 2 mg/mL using an Amicon Ultra-15 50K (Merck Millipore, Burlington, MA) and an equal volume of glycerol was added before storing at −20 °C.
TryR oxidoreductase activity was determined spectrophotometrically using a modified version of the DTNB-coupled assay described by Hamilton et al.[52] Briefly, reactions were carried out at 26 °C in 250 μL of N-(2-hydroxyethyl)piperazine-N′-ethanesulfonic acid (HEPES) buffer (pH 7.5, 40 mM) containing ethylenediaminetetraacetic acid (EDTA) (1 mM), NADP^+ (30 μM), DTNB (25 μM), TS2 (1 μM), NADPH (150 μM), glycerol (0.02%), DMSO (1.75%), and recombinant TryR (7 nM). […] Reactions were started by addition of a mixture of NADPH and TS2.
TryR oxidoreductase activity was monitored at 26 °C by an increase in absorbance at 412 nm in an EnSpire Multimode Plate Reader (PerkinElmer, Waltham, MA). […] (TNB) concentration was obtained by multiplying the absorbance values by 100 (50 μM TNB generates 0.5 arbitrary units of absorbance at 412 nm). In this DTNB-coupled assay, one molecule of T(SH)2 reduces one molecule of DTNB, producing two TNB molecules. All of the assays were conducted in at least three independent experiments. Data were analyzed using a nonlinear regression model with GraFit 6 software (Erithacus, Horley, Surrey, U.K.).

[1] = test system: L. infantum axenic amastigotes; assay: Leishmanicidal activity on axenic amastigotes (PI exclusion, flow cytometry); assay type: cell-based, Leishmania infantum; details: for SIa (ratio of EC50 against human cells to EC50 against amastigotes): HepG2 / axenic amastigotes; for EC50: Leishmania infantum, read-out: EC50 amastigotes
Outline: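 Leishmania infantum axenic amastigotes (MCAN/ES/89/IPZ229/1/89) were cultured at 37 °C in M199 medium, pH 5.4, with 10% heat-inactivated FCS, organic acids, MES, hemin and gentamicine. After compound exposure, parasites were gated by FSC/SSC and live versus dead cells were distinguished by propidium iodide exclusion using flow cytometry. EC50 values came from nonlinear regression in GraFit 6, with triplicates in at least three independent experiments.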

[2] = HepG2, 24 h, crystal violet method
[3] = axenic amastigotes, 24 h at 37 °C

SMILES	EC50 (HepG2 cells; [2])	IC50 (LiTryR)	SIa (ratio of EC50 against human cells to EC50 against amastigotes) [1]	EC50 [1, 3]	fold more potent than 12n, IC50^act (LiTryR; versus monomeric 12n)	EC50 (HepG2 cells; HepG2, 24 h)	EC50 ([1]; 24 h)
NCCCCc1cn(-c2ccc(-c3nc(CCc4ccc5c(c4)CCCN5)cs3)c(OCCN3CCNC3=O)c2)nn1.O=C(O)C(F)(F)F.O=C(O)C(F)(F)F [12q]	43.3 ± 1 µM	6.9 ± 2.1 µM	ND/1.6	27 ± 2.8 µM	–	–	–
NCCCCc1cn(-c2ccc(-c3nc(-c4ccccc4)cs3)c(OCCN3CCNC3=O)c2)nn1.O=C(O)C(F)(F)F [12n]	16.4 ± 2.3 µM	11.2 ± 0.2 µM	–	11.5 ± 0.3 µM	–	–	–
NCCCCc1cn(-c2ccc(-c3nc(-c4ccccc4)c(-c4ccccc4)s3)c(OCCN3CCNC3=O)c2)nn1.O=C(O)C(F)(F)F [19a, 1-(2-(5-(4-(4-Ammoniobutyl)-1H-1,2,3-triazol-1-yl)-2-(4,5-diphenylthiazol-2-yl)phenoxy)ethyl)imidazolidin-2-one 2,2,2-Trifluoroacetate]	26.5 ± 4.1 µM	4.3 ± 1 µM	1.7	15.6 ± 3 µM	–	–	–
NCCCCc1cn(-c2ccc(-c3nc(-c4cccc(-c5csc(-c6ccc(-n7cc(CCCCN)nn7)cc6OCCN6CCNC6=O)n5)c4)cs3)c(OCCN3CCNC3=O)c2)nn1.O=C(O)C(F)(F)F.O=C(O)C(F)(F)F [compound 22, 1,1′-((((1,3-Phenylenebis(thiazole-4,2-diyl))bis(5-(4-(4-ammoniobutyl)-1H-1,2,3-triazol-1-yl)-2,1-phenylene))bis(oxy))bis(ethane-2,1-diyl))bis(imidazolidin-2-one)bis(2,2,2-trifluoroacetate)]	30.5 ± 4.1 µM	0.4 ± 0.03 µM	6.2	4.9 ± 0.2 µM	28 fold	–	–
NCCCCc1cn(-c2ccc(-c3nc(CCc4ccc5oc6ccccc6c5c4)cs3)c(OCCN3CCNC3=O)c2)nn1.O=C(O)C(F)(F)F [12s]	–	6.6 ± 1.9 µM	ND/>1.1	–	–	> 75 µM	68.8 ± 3.2 µM
NCCNCc1nccn1-c1ccc(-c2nc(CCc3ccc(-c4ccccc4)cc3)cs2)c(OCCN2CCNC2=O)c1 [compound 3, reference compound]	14.2 ± 0.9 µM	8.6 ± 1.4 µM	2.7 and 2.7/2.7	5.3 ± 0.2 µM	–	–	–
NCCCc1cn(-c2ccc(-c3nc(CCc4ccc(-c5ccccc5)cc4)cs3)c(OCCN3CCNC3=O)c2)nn1.O=C(O)C(F)(F)F [12i]	60.4 ± 3 µM	19.7 ± 3.8 µM	11.6	5.2 ± 0.3 µM	–	–	–
NCCNCc1nccn1-c1ccc(-c2nc(CCc3ccc4ccccc4c3)cs2)c(OCCN2CCNC2=O)c1 [compound 2, reference compound]	27.1 ± 2.4 µM	5.1 ± 0.4 µM	2.1/2.1	12.8 ± 1.3 µM	–	–	–
NCCCCc1cn(-c2ccc(-c3nc(-c4ccc(Oc5ccccc5)cc4)c(-c4ccccc4)s3)c(OCCN3CCNC3=O)c2)nn1.O=C(O)C(F)(F)F [19c, 1-(2-(5-(4-(4-Ammoniobutyl)-1H-1,2,3-triazol-1-yl)-2-(4-([4-phenyloxyphenyl]-1-yl)-5-phenylthiazol-2-yl)phenoxy)ethyl)imidazolidin-2-one 2,2,2-Trifluoroacetate]	≥ 75 µM	16.9 ± 2.7 µM	ND/≥3.3	22.6 ± 5.7 µM	–	–	–
NCCCCc1cn(-c2ccc(-c3nc(CCc4ccc(-c5ccccc5)cc4)cs3)c(OCCN3CCNC3=O)c2)nn1.O=C(O)C(F)(F)F [12c, 1-(2-(2-(4-(2-([1,1′-Biphenyl]-4-yl)ethyl)thiazol-2-yl)-5-(4-(4-ammoniumbutyl)-1H-1,2,3-triazol-1-yl)phenoxy)ethyl)imidazolidin-2-one 2,2,2-Trifluoroacetate]	43.1 ± 2.6 µM	10.9 ± 1.8 µM	3.7	11.6 ± 0.8 µM	–	–	–
NCCCCc1cn(-c2ccc(-c3nc(CCc4ccc5ccccc5c4)cs3)c(OCCN3CCNC3=O)c2)nn1.O=C(O)C(F)(F)F [12b, 1-(2-(5-(4-(4-Ammoniumbutyl)-1H-1,2,3-triazol-1-yl)-2-(4-(2-(naphthalen-2-yl)ethyl)thiazol-2-yl)phenoxy)ethyl)imidazolidin-2-one 2,2,2-Trifluoroacetate]	33.3 ± 2.7 µM	5.9 ± 1.1 µM	2.2	15.3 ± 1.7 µM	–	–	–
NCCCCc1cn(-c2ccc(-c3nc(CCc4ccc5c(c4)CCO5)cs3)c(OCCN3CCNC3=O)c2)nn1.O=C(O)C(F)(F)F [12r]	29.4 ± 0.7 µM	11.9 ± 0.6 µM	1.3	22.3 ± 0.6 µM	–	–	–
